Results reported in patent USRE37781E1, “Substituted cyclic carbonyls and derivatives thereof useful as retroviral protease inhibitors” (DuPont Pharmaceuticals Company, priority 1991, dated 2002).
≈ marks a conversion by molar mass, not a printed value. Where two headings read alike, the source gives them in different places.

Tests used:
HIV-1 (RF) in MT-2 cells = assay: microbe, parasite or virus in culture; type: cell-based; conditions: read-out: IC90
Summary of the method: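 Read-out: gag and pol viral RNA captured by 5′-biotinylated oligonucleotides on streptavidin-coated wells, detected with alkaline phosphatase-linked reporter oligonucleotides, calibrated against BH10 in vitro transcripts. Virus stocks (RF, MN, IIIB) come from H9 cultures; MT-2 host cells kept in RPMI 1640, 5% FCS.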

[1] = molecular target: single-chain tethered dimer of HIV protease (Human immunodeficiency virus 1, UniProt P04585); assay: biochemical; type: biochemical; design: fused on or other part: A second copy of the same protease unit is joined to the first by a short peptide tether, giving one polypeptide
[2] = Human immunodeficiency virus 1, MT2, 48 h, Table 2d, class symbols
[3] = read-out: HPLC K1, Table 2d, class symbols
[4] = Human immunodeficiency virus 1, MT2, 48 h, Table 2d, HIV RNA assay
[5] = read-out: HPLC K1, Table 2d, HIV protease inhibition, HPLC method
[6] = Human immunodeficiency virus 1, MT2, Table 2m
[7] = Human immunodeficiency virus 1, MT2, HIV RNA assay, HIV-1 infected MT-2 cells, class symbols

| Structure (SMILES) | IC90 (HIV-1 (RF) in MT-2 cells; [2]) [µg/mL] | melting point [°C] | Ki [1, 3] [nM] | Ki [1, 5] [nM] | other results |
| --- | --- | --- | --- | --- | --- |
| Nc1cccc(CN2C(=O)N(Cc3cccc(O)c3)C(Cc3ccccc3)C(O)C(O)C2Cc2ccccc2)c1 (stereo not drawn) [11Q] | < 10 | 116 to 120 | < 10 | – | – |
| N=C(N)c1cccc(CN2C(=O)N(Cc3cccc(C(=N)N)c3)C(Cc3ccccc3)C(O)C(O)C2Cc2ccccc2)c1 (stereo not drawn) [11A] | > 100 | 224 to 226 | 10 to 1000 | – | – |
| N#Cc1cc(CN2C(=O)N(Cc3cccc(-c4cc[nH]n4)c3)C(Cc3ccccc3)C(O)C(O)C2Cc2ccccc2)ccc1F (stereo not drawn) [Example 15CF] | – | 118 to 120 | – | < 10 | IC90 (HIV-1 (RF) in MT-2 cells; [4]): < 10 µg/mL |
| O=C1N(Cc2cccc(CCl)c2)C(Cc2ccccc2)C(O)C(O)C(Cc2ccccc2)N1Cc1cccc(CCl)c1 (stereo not drawn) [Example 9S] | < 10 | 156 to 157 | 10 to 1000 | – | – |
| O=S1(=O)N(Cc2ccc(CO)cc2)C(Cc2ccccc2)C(O)C(O)C(Cc2ccccc2)N1Cc1ccc(CO)cc1 (stereo not drawn) [23B] | – | 189 to 190 | – | – | IC90 (HIV-1 (RF) in MT-2 cells; [6]): < 10 µg/mL; Ki ([1]; read-out: HPLC Ki, Table 2m): < 10 nM |
| O=C1N(Cc2cccc(-c3cnc[nH]3)c2)C(Cc2ccccc2)C(O)C(O)C(Cc2ccccc2)N1Cc1cccc(-c2cnc[nH]2)c1 (stereo not drawn) [Example 15BK] | – | 171 to 175 | – | < 10 | IC90 (HIV-1 (RF) in MT-2 cells; [4]): < 10 µg/mL |
| O=C(O)c1cccc(CN2C(=O)N(Cc3ccc(CO)cc3)C(Cc3ccccc3)C(O)C(O)C2Cc2ccccc2)c1 (stereo not drawn) [15WR] | < 10 | 130 to 132 | < 10 | – | – |
| O=C1N(CC2CC2)C(Cc2ccc([N+](=O)[O-])cc2)C(O)C(O)C(Cc2ccc([N+](=O)[O-])cc2)N1CC1CC1 (stereo not drawn) [Example 20B] | – | 227.5 | – | – | IC90 (HIV-1 (RF) in MT-2 cells; Human immunodeficiency virus 1, MT2, Table 2i): < 10 µg/mL; Ki ([1]; read-out: HPLC Ki, Table 2i): < 10 nM |
| CC(=O)c1cccc(CN2C(=O)N(Cc3cccc(C(C)=O)c3)C(Cc3ccccc3)C(O)C(O)C2Cc2ccccc2)c1 (stereo not drawn) [Example 9P] | < 10 | 158 to 159 | 10 to 1000 | – | – |
| CON=Cc1cccc(CN2C(=O)N(Cc3cccc(C=NOC)c3)C(Cc3ccccc3)C(O)C(O)C2Cc2ccccc2)c1 (stereo not drawn) [10D] | > 100 | 183 to 185 | 10 to 1000 | – | – |
| O=C1N(Cc2cccc(C=NOCc3ccccc3)c2)C(Cc2ccccc2)C(O)C(O)C(Cc2ccccc2)N1Cc1cccc(C=NOCc2ccccc2)c1 (stereo not drawn) [Example 9D] | 10 to 100 (≈ 12.9 to 129 µM) | 170.5 to 171 | 10 to 1000 | – | – |
| O=C1N(Cc2ccc3cn[nH]c3c2)C(Cc2ccccc2)C(O)C(O)C(Cc2ccccc2)N1Cc1ccc2cn[nH]c2c1 (stereo not drawn) [15CY] | – | 170 to 175 | – | < 10 | IC90 (HIV-1 (RF) in MT-2 cells; [4]): < 10 µg/mL |
| NC(=O)c1cccc(CN2C(=O)N(CC3CC3)C(Cc3ccccc3)C(O)C(O)C2Cc2ccccc2)c1 (stereo not drawn) [15WV] | < 10 | 128 to 130 | < 10 | – | – |
| NC(=NO)c1cccc(CN2C(=O)N(CC3CC3)C(Cc3ccccc3)C(O)C(O)C2Cc2ccccc2)c1 (stereo not drawn) [15AF] | – | 183 to 186 | – | < 10 | IC90 (HIV-1 (RF) in MT-2 cells; [4]): < 10 µg/mL |
| NC(=NO)c1ccc(CN2C(=O)N(Cc3ccc(CO)cc3)C(Cc3ccccc3)C(O)C(O)C2Cc2ccccc2)cc1 (stereo not drawn) [15AI] | – | 215 | – | 10 to 1000 | IC90 (HIV-1 (RF) in MT-2 cells; [4]): < 10 µg/mL |
| CN(C=O)c1cccc(CN2C(=O)N(Cc3cccc(N(C)C=O)c3)C(Cc3ccccc3)C(O)C(O)C2Cc2ccccc2)c1 (stereo not drawn) [15F] | < 10 | 82 | 10 to 1000 | – | – |
| COC(=O)c1cccc(CN2C(=O)N(Cc3cccc(-c4cc[nH]n4)c3)C(Cc3ccccc3)C(O)C(O)C2Cc2ccccc2)c1 (stereo not drawn) [Example 15BP] | – | 127 to 130 | – | < 10 | IC90 (HIV-1 (RF) in MT-2 cells; [4]): < 10 µg/mL |
| O=[N+]([O-])c1cccc(CN2C(Cc3ccccc3)C(O)C(O)C(Cc3ccccc3)N(Cc3cccc([N+](=O)[O-])c3)S2(=O)=O)c1 (stereo not drawn) [23L] | – | 196 to 198 | – | – | IC90 (HIV-1 (RF) in MT-2 cells; [6]): < 10 µg/mL; Ki ([1]; read-out: HPLC Ki, Table 2m): 10 to 1000 nM |
| Cc1ccc(CN2C(=O)N(Cc3ccc(CO)cc3)C(Cc3ccccc3)C(O)C(O)C2Cc2ccccc2)cc1 (stereo not drawn) [15EI] | – | 174 to 175 | – | < 10 | – |
| CC(C)CCCC(C)CCN1C(=O)N(CCC(C)CCCC(C)C)C(Cc2ccccc2)C(O)C(O)C1Cc1ccccc1 (stereo not drawn) [Example 1P] | – | 80 to 82 | – | – | – |
| O=C1N(Cc2cccc3ccccc23)C(Cc2ccccc2)C(O)C(O)C(Cc2ccccc2)N1Cc1cccc2ccccc12 (stereo not drawn) [Example 3T] | – | 231 to 233 | – | – | IC90 (HIV-1 (RF) in MT-2 cells; [7]): > 100 µg/mL |
| O=C1N(Cc2ccccn2)C(Cc2ccccc2)C(O)C(O)C(Cc2ccccc2)N1Cc1ccccn1 (stereo not drawn) [Example 3M] | – | 151 to 153 | – | – | IC90 (HIV-1 (RF) in MT-2 cells; [7]): 10 to 100 µg/mL (≈ 19.7 to 197 µM) |
| CC1C(O)C(O)C(C)N(Cc2ccc3ccccc3c2)C(=O)N1Cc1ccc2ccccc2c1 (stereo not drawn) [Example 16H] | – | 236 to 238 | – | – | Ki ([1]; read-out: K4 HPLC, Table 2e): > 1000 nM |
